Reference: patent US20160296499A1, “Spiroindoline Antiparasitic Derivatives” (ZOETIS SERVICES LLC, priority 2013, published 2016)
Where two headings read alike, the source gives them in different places.

Experiments:
Haemonchus contortus L3 = experiment: Haemonchus contortus, Larvae Stage 3 (HcL3) In Vitro Assay
[1] = test system: Dirofilaria immitis microfilariae; experiment: Dirofilaria immitis, Microfilariae (DiMF) In Vitro Assay
[2] = target: T1, bovine vesicular acetylcholine transporter (VAChT) (Bos taurus, UniProt E1BK36); experiment: Radioligand Binding Assay; conditions: Bovine binding Ki, CHO-K1 membranes with recombinant bovine VAChT, [3H]Compound X6 0.3 nM
T1 sequence (E1BK36 1-524): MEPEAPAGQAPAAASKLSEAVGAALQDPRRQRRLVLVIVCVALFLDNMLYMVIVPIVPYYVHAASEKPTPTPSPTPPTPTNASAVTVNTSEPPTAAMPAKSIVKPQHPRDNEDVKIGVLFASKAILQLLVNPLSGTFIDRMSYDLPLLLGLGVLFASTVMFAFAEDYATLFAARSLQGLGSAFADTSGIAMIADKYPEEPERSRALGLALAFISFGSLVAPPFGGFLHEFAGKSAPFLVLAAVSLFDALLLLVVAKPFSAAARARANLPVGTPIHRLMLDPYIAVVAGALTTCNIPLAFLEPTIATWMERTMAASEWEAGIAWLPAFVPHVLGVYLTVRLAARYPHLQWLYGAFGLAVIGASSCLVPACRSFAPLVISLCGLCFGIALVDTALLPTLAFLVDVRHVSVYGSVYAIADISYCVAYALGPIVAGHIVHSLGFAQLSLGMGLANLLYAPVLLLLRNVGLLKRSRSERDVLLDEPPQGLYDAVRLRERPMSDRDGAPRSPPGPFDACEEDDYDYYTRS

[3] = Haemonchus contortus, 96 h, read-out: HcL3 MEC, Minimal Effective Concentration whereby worm motility is inhibited by approximately 70%, 37° C., tested 0.001-100 μM
[4] = Dirofilaria immitis, 72 h, read-out: Di MF, MEC, decrease in microfilariae motility by visual assessment, curve starting at 100 μM
[5] = Haemonchus contortus, 96 hours, 37° C., read-out: HcL3 MEC
[6] = Dirofilaria immitis, 72 hours, read-out: Di MF

Compound | minimal effective concentration (Haemonchus contortus L3; [3]) [µM] | minimal effective concentration [1, 4] [µM] | Ki [2] [nM] | minimal effective concentration (Haemonchus contortus L3; [5]) [µM] | minimal effective concentration [1, 6] [µM] | minimal effective concentration (Haemonchus contortus L3; Minimal Effective Concentration whereby worm motility is inhibited by approximately 70%, 96 hours, 37° C., tested 0.001-100 μM, read-out: HcL3 MEC) [µM] | minimal effective concentration ([1]; MEC, decrease in microfilariae motility by visual assessment, 72 hours, curve starting at 100 μM, read-out: Di MF) [µM]
O=C(NCc1ccnc(Cl)c1)N1CC2(CCN(C/C=C/c3ccc(C(F)(F)F)cc3)CC2)c2cc(C(F)(F)F)ccc21 [Example 170, (E)-N-((2-chloropyridin-4-yl)methyl)-5-(trifluoromethyl)-1′-(3-(4-(trifluoromethyl)phenyl)allyl)spiro[indoline-3,4′-piperidine]-1-carboxamide] | 57.4 | 5.7 | 716 |  |  |  | 
O=C(NCc1ccnc(Cl)c1)N1CC2(CCN(C/C=C/c3ccc(Cl)c(Cl)c3)CC2)c2cc(Cl)cc(Cl)c21 [Example 171, (E)-5,7-dichloro-N-((2-chloropyridin-4-yl)methyl)-1′-(3-(3,4-dichlorophenyl)allyl)spiro[indoline-3,4′-piperidine]-1-carboxamide] |  |  | 20.9 | 69.1 | 7.6 |  | 
O=C(NCc1ccnc(Cl)c1)N1CC2(CCN(C/C=C/c3ccc(OC(F)(F)F)cc3)CC2)c2cc(C(F)(F)F)ccc21 [Example 172, (E)-N-((2-chloropyridin-4-yl)methyl)-1′-(3-(4-(trifluoromethoxy)phenyl)allyl)-5-(trifluoromethyl)spiro[indoline-3,4′-piperidine]-1-carboxamide] | 100 | 5.7 | 921 |  |  |  | 
O=C(NCc1ccnc(Cl)c1)N1CC2(CCN(C/C=C/c3ccc(Cl)cc3)CC2)c2c1ccc(F)c2C(F)(F)F [Example 173, (E)-1′-(3-(4-chlorophenyl)allyl)-N-((2-chloropyridin-4-yl)methyl)-5-fluoro-4-(trifluoromethyl)spiro[indoline-3,4′-piperidine]-1-carboxamide] | 100 | 5.7 | 465 |  |  |  | 
O=C(NCc1ccnc(Cl)c1)N1CC2(CCN(C/C=C/c3ccc(F)cc3)CC2)c2c(OC(F)(F)F)cccc21 [Example 174, (E)-N-((2-chloropyridin-4-yl)methyl)-1′-(3-(4-fluorophenyl)allyl)-4-(trifluoromethoxy)spiro[indoline-3,4′-piperidine]-1-carboxamide] | 100 | 4.4 | 1500 |  |  |  | 
O=C(NCc1ccnc(C(F)(F)F)c1)N1CC2(CCN(C/C=C/c3ccc(F)cc3)CC2)c2cc(OC(F)(F)F)ccc21 [Example 175, (E)-1′-(3-(4-fluorophenyl)allyl)-5-(trifluoromethoxy)-N-((2-(trifluoromethyl)pyridin-4-yl)methyl)spiro[indoline-3,4′-piperidine]-1-carboxamide] | 24.5 | 3.3 | 452 |  |  |  | 
N#Cc1ccc(/C=C/CN2CCC3(CC2)CN(C(=O)NCc2ccnc(C(F)(F)F)c2)c2ccc(OC(F)(F)F)cc23)cc1 [Example 176, (E)-1′-(3-(4-cyanophenyl)allyl)-5-(trifluoromethoxy)-N-((2-(trifluoromethyl)pyridin-4-yl)methyl)spiro[indoline-3,4′-piperidine]-1-carboxamide] | 33 | 3.3 | 288 |  |  |  | 
O=C(NCc1ccnc(C(F)(F)F)c1)N1CC2(CCN(C/C=C/c3ccc(C(F)(F)F)cc3)CC2)c2cc(OC(F)(F)F)ccc21 [Example 177, (E)-5-(trifluoromethoxy)-1′-(3-(4-(trifluoromethyl)phenyl)allyl)-N-((2-(trifluoromethyl)pyridin-4-yl)methyl)spiro[indoline-3,4′-piperidine]-1-carboxamide] | 100 | 3.3 | 1670 |  |  |  | 
O=C(NCc1ccnc(C(F)(F)F)c1)N1CC2(CCN(C/C=C/c3ccc(OC(F)(F)F)cc3)CC2)c2cc(OC(F)(F)F)ccc21 [Example 178, (E)-5-(trifluoromethoxy)-1′-(3-(4-(trifluoromethoxy)phenyl)allyl)-N-((2-(trifluoromethyl)pyridin-4-yl)methyl)spiro[indoline-3,4′-piperidine]-1-carboxamide] | 100 | 3.3 | 760 |  |  |  | 
O=C(NCc1ccnc(C(F)(F)F)c1)N1CC2(CCN(C/C=C/c3ccc(Cl)cc3)CC2)c2cc(OC(F)(F)F)ccc21 [Example 179, (E)-1′-(3-(4-chlorophenyl)allyl)-5-(trifluoromethoxy)-N-((2-(trifluoromethyl)pyridin-4-yl)methyl)spiro[indoline-3,4′-piperidine]-1-carboxamide] |  |  | 371 | 7.6 | 3.3 |  | 
O=C(NCc1ccnc(Cl)c1)N1CC2(CCN(C/C=C/c3ccc(OC(F)(F)F)cc3)CC2)c2cc(OC(F)(F)F)ccc21 [Example 180, (E)-N-((2-chloropyridin-4-yl)methyl)-5-(trifluoromethoxy)-1′-(3-(4-(trifluoromethoxy)phenyl)allyl)spiro[indoline-3,4′-piperidine]-1-carboxamide] | 10 | 10 | 437 |  |  |  | 
O=C(NCc1ccnc(Cl)c1)N1CC2(CCN(C/C=C/c3ccc(C(F)(F)F)cc3)CC2)c2cc(OC(F)(F)F)ccc21 [Example 181, (E)-N-((2-chloropyridin-4-yl)methyl)-5-(trifluoromethoxy)-1′-(3-(4-(trifluoromethyl)phenyl)allyl)spiro[indoline-3,4′-piperidine]-1-carboxamide] | 100 | 10 | 816 |  |  |  | 
O=C(NCc1ccnc(Cl)c1)N1CC2(CCN(C/C=C/c3ccc(C(F)(F)F)cn3)CC2)c2cc(OC(F)(F)F)ccc21 [Example 182, (E)-N-((2-chloropyridin-4-yl)methyl)-5-(trifluoromethoxy)-1′-(3-(5-(trifluoromethyl)pyridin-2-yl)allyl)spiro[indoline-3,4′-piperidine]-1-carboxamide] | 10 | 10 | 1470 |  |  |  | 
COc1cc(CNC(=O)N2CC3(CCN(C/C=C/c4ccc(C(F)(F)F)cc4)CC3)c3cc(Cl)ccc32)ccn1 [Example 183, (E)-5-chloro-N-((2-methoxypyridin-4-yl)methyl)-1′-(3-(4-(trifluoromethyl)phenyl)allyl)spiro[indoline-3,4′-piperidine]-1-carboxamide] | 10 | 3.3 | 184 |  |  |  | 
O=C(NCc1ccnc(F)c1)N1CC2(CCN(C/C=C/c3ccc(C(F)(F)F)cc3)CC2)c2cc(Cl)ccc21 [Example 184, (E)-5-chloro-N-((2-fluoropyridin-4-yl)methyl)-1′-(3-(4-(trifluoromethyl)phenyl)allyl)spiro[indoline-3,4′-piperidine]-1-carboxamide] | 3.3 | 3.3 | 224 |  |  |  | 
O=C(NCc1ccnc(Cl)c1)N1CC2(CCN(C/C=C/c3ccc(Cl)cc3)CC2)c2cc(OC(F)(F)F)ccc21 [Example 185, (E)-1′-(3-(4-chlorophenyl)allyl)-N-((2-chloropyridin-4-yl)methyl)-5-(trifluoromethoxy)spiro[indoline-3,4′-piperidine]-1-carboxamide] |  |  | 283 |  |  | 3.3 | 10.0
Cc1noc(C)c1-c1ccc2c(c1)C1(CCN(C/C=C/c3ccc(Cl)cc3)CC1)CN2C(=O)NCc1ccnc(-c2c(C)noc2C)c1 [Example 186, (E)-1′-(3-(4-chlorophenyl)allyl)-5-(3,5-dimethylisoxazol-4-yl)-N-((2-(3,5-dimethylisoxazol-4-yl)pyridin-4-yl)methyl)spiro[indoline-3,4′-piperidine]-1-carboxamide] | 100 | 3.3 | 1360 |  |  |  | 
Cc1noc(C)c1-c1ccc2c(c1)C1(CCN(C/C=C/c3ccc(Cl)cc3)CC1)CN2C(=O)NCc1ccnc(Cl)c1 [Example 187, (E)-1′-(3-(4-chlorophenyl)allyl)-N-((2-chloropyridin-4-yl)methyl)-5-(3,5-dimethylisoxazol-4-yl)spiro[indoline-3,4′-piperidine]-1-carboxamide] |  |  | 2470 | 100 | 3.3 |  | 
O=C(NCc1cnc(Cl)s1)N1CC2(CCN(C/C=C/c3ccc(Cl)cc3)CC2)c2cc(OC(F)(F)F)ccc21 [Example 189, (E)-1′-(3-(4-chlorophenyl)allyl)-N-((2-chlorothiazol-5-yl)methyl)-5-(trifluoromethoxy)spiro[indoline-3,4′-piperidine]-1-carboxamide] |  |  | 792 | 100 | 14 |  | 
